A word on the IC50: it is the midpoint of a concentration-inhibition curve.

The results in this text go back to patent publication US9770452B2, “Quinoxaline derivatives as GPR6 modulators” (Takeda Pharmaceutical Company Limited, priority 2012, dated 2017).

The experiment has as its target T1, GPR6 receptor (Homo sapiens, UniProt P46095).
T1 construct: expressed in transfected cells
The experiment in a line: Inhibition of cAMP Activity of GPR6 In Vitro Assay (CHO-K1 cells, HTRF cAMP). It counts as cell-based. The note with it: compounds of Compound Table 1; inhibition of constitutive cAMP activity of GPR6 expressed in CHO-K1 cells; approximate IC50; read-out: IC50. On the procedure:
Inhibition of cAMP Activity of GPR6 In Vitro Assay
This cell based assay measures the ability of compounds to inhibit the constitutive cAMP activity of GPR6 receptor expressed in CHO-K1 cells. CHO cells were stably expressed with GPR6 receptor, whose expression is controlled by a tetracycline inducable element. The cells were cultured in medium containing F12K, 10% FBS, 1% Penn/Strep, 200 ug/mL Hygromycin. GPR6 receptor expression was induced for 20 hrs with 1 μg/ml doxycycline (sigma D9891) in growth media. After addition of doxycycline cells were plated at a density of 250-500 cells per well in half-volume black clear bottom plates (Costar) and place in an incubator (37°, 5% C(O)2) for 20 hours prior to cAMP assays.
Culture media was removed from cells and they were washed with 50 μL of Ringer's Buffer (MgCl2 0.047 mg/mL, NaH2PO4 0.18 mg/mL, Na2HPO4 0.1 mg/mL, KCl 0.34 mg/mL, NaHC(O)3 1.26 mg/mL, D-glucose 1.8 mg/mL, NaCl 7 mg/mL; pH=7.4). Compounds suspended in DMSO were diluted in Ringer's Buffer containing 0.5% fatty acid free BSA and incubated on cells for 45 min at […] and 5% C(O)2. After incubation cells were incubated for 10 min at room temp with Eu-cAMP tracer solution from a Perkin Elmer Lance HTRF UltracAMP assay kit (TRF0264). Then ULight™-anti-cAMP solution from the Lance HTRF kit was added and incubated on a shaker at room temp for 1 hour prior to HTRF detection in a BMG PolarStar Omega.
IC50 curves were generated with a four-parameter logistic equation using GraphPad Prism 5.03.
(Time-resolved FRET reads energy transfer from a long-lived donor to a nearby acceptor.)

Where a name gives a salt, the structure may show the parent alone.

T1 sequence (P46095 whole entry): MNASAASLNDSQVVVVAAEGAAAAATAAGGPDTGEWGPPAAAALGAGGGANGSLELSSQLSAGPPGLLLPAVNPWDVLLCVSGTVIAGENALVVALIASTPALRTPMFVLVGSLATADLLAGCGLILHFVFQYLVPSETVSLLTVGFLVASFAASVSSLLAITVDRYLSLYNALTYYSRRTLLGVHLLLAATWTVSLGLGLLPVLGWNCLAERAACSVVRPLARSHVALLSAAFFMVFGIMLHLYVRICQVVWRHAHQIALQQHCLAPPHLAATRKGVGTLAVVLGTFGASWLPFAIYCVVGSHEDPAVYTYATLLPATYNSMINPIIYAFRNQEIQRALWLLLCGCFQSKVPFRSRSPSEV

Turning to “3-(4-(2,4-difluorobenzyl)piperidin-1-yl)-N-(2-methoxyethyl)pyrido[3,4-b]pyrazin-2-amine, 2,2,2-trifluoroacetic acid salt [Cpd 519]”, the half-inhibitory concentration (IC50) was 250 nM.
“7-chloro-N-cyclopropyl-3-(4-(2,4-difluorobenzyl)piperidin-1-yl)pyrido[3,4-b]pyrazin-2-amine [Cpd 592]”: the IC50 was found to be 26 nM.
For “3-(4-(2,4-difluorobenzyl)piperazin-1-yl)-2-(isopropylamino)-N,N-dimethylpyrido[3,4-b]pyrazine-7-carboxamide, 2,2,2-trifluoroacetic acid salt [Cpd 634]” the value was 6 nM.
As for “(R)-azetidin-1-yl(2-(cyclopropylamino)-3-(4-((2,4-difluorophenyl)fluoromethyl)piperidin-1-yl)pyrido[3,4-b]pyrazin-7-yl)methanone [Cpd 589]”, the IC50 came to 69 nM.
In the case of `c1ccc2nc(N3CCN(Cc4coc5ccccc45)CC3)c(NC3CC3)nc2c1` [Cpd 100, 3-(4-(benzofuran-3-ylmethyl)piperazin-1-yl)-N-cyclopropylquinoxalin-2-amine] it was 3960 nM.
In the case of “(2-(cyclopropylamino)-3-(4-(2,4-difluorobenzyl)piperazin-1-yl)pyrido[3,4-b]pyrazin-7-yl)(morpholino)methanone, 2,2,2-trifluoroacetic acid salt [Cpd 611]”, the IC50 amounted to 44 nM.
“2-(4-(2,4-difluorobenzyl)piperidin-1-yl)-N-(2,2-difluoroethyl)pyrido[3,4-b]pyrazin-3-amine [Cpd 428]”: the IC50 was found to be 20 nM.
In the case of “2-((1-(2-(cyclopropylamino)pyrido[3,4-b]pyrazin-3-yl)piperidin-4-yl)oxy)benzonitrile [Cpd 574]” it was 4810 nM.
For “4-((1-(2-(cyclopropylamino)pyrido[3,4-b]pyrazin-3-yl)piperidin-4-yl)oxy)-N,N-dimethylbenzamide, 2,2,2-trifluoroacetic acid salt [Cpd 588]” the value was 2740 nM; for “3-(4-(5-(tert-butyl)-2-methoxybenzyl)piperazin-1-yl)-N-cyclopropylpyrido[3,4-b]pyrazin-2-amine, 2,2,2-trifluoroacetic acid salt [Cpd 306]”, 380 nM; for `CC(C)CCNc1nc2ccccc2nc1N1CCN(Cc2cc(Cl)ccc2Cl)CC1` [Cpd 115, 3-(4-(2,5-dichlorobenzyl)piperazin-1-yl)-N-isopentylquinoxalin-2-amine, 2,2,2-trifluoroacetic acid salt], 3980 nM.
For “6-bromo-N-cyclopropyl-3-(4-(2,4-difluorobenzyl)piperidin-1-yl)quinoxalin-2-amine, 2,2,2-trifluoroacetic acid salt [Cpd 495]” the value was 18 nM.
For the compound `Clc1ccc(Cl)c(CN2CCN(c3nc4cc(Br)ccc4nc3NC3CC3)CC2)c1` [Cpd 46, 6-bromo-N-cyclopropyl-3-(4-(2,5-dichlorobenzyl)piperazin-1-yl)quinoxalin-2-amine, 2,2,2-trifluoroacetic acid salt], the IC50 was 4820 nM.
Turning to “2-(cyclopropylamino)-3-(4-tosylpiperazin-1-yl)quinoxaline-6-carbonitrile [Cpd 240]”, the IC50 was determined as 4590 nM.
With `Clc1cccc(CN2CCN(c3nc4ccccc4nc3NC3CC3)CC2)c1` [Cpd 5, 3-(4-(3-chlorobenzyl)piperazin-1-yl)-N-cyclopropylquinoxalin-2-amine, 2,2,2-trifluoroacetic acid salt], the IC50 came out at 40600 nM.
In the case of “(1-(2-(cyclopropylamino)pyrido[3,4-b]pyrazin-3-yl)piperidin-4-yl)(o-tolyl)methanone, 2,2,2-trifluoroacetic acid salt [Cpd 565]” it was 15400 nM.
In the case of `COc1ccc(C(=O)N2CCN(c3nc4ccccc4nc3NC3CC3)CC2)cc1Cl` [Cpd 9, (3-chloro-4-methoxyphenyl)(4-(3-(cyclopropylamino)quinoxalin-2-yl)piperazin-1-yl)methanone, 2,2,2-trifluoroacetic acid salt], the IC50 stood at 10100 nM.
For “(S)-2-(cyclopropylamino)-3-(4-((2,4-difluorophenyl)fluoromethyl)piperidin-1-yl)-N,N-dimethylpyrido[3,4-b]pyrazine-7-carboxamide, 2,2,2-trifluoroacetic acid salt [Cpd 577]” the value was 4900 nM.
For “7-chloro-N-cyclopropyl-3-(4-(2,4-difluorophenoxy)piperidin-1-yl)pyrido[3,4-b]pyrazin-2-amine, 2,2,2-trifluoroacetic acid salt [Cpd 476]”, the IC50 stood at 15 nM.
In the case of “3-(4-(4-chlorobenzyl)piperidin-1-yl)-N-cyclopropylpyrido[3,4-b]pyrazin-2-amine, 2,2,2-trifluoroacetic acid salt [Cpd 424]” it was 310 nM; in that of “N-cyclopropyl-3-(4-((4-fluorophenyl)sulfonyl)piperidin-1-yl)-7-methylpyrido[3,4-b]pyrazin-2-amine 2,2,2-trifluoroacetate [Cpd 654]”, 30 nM; in that of “(R)-3-(4-((2,4-difluorophenyl)fluoromethyl)piperidin-1-yl)-N-isopropylpyrazino[2,3-d]pyridazin-2-amine, 2,2,2-trifluoroacetic acid salt [Cpd 640]”, 72 nM.
In the case of “3-(4-(2,5-difluorobenzoyl)piperidin-1-yl)-2-(isopropylamino)pyrido[3,4-b]pyrazine-7-carbonitrile, 2,2,2-trifluoroacetic acid salt [Cpd 631]” it was 6 nM; in that of “3-(4-(4-chloro-2-fluorophenoxy)piperidin-1-yl)-2-(isopropylamino)-N,N-dimethylpyrido[3,4-b]pyrazine-7-carboxamide, 2,2,2-trifluoroacetic acid salt [Cpd 630]”, 7 nM; in that of “(4-chlorophenyl)(4-(2-(cyclopropylamino)pyrido[3,4-b]pyrazin-3-yl)piperazin-1-yl)methanone [Cpd 263]”, 120 nM.
For `N#Cc1ccc(C(=O)N2CCN(c3nc4ccccc4nc3NC3CC3)CC2)cc1` [Cpd 75, 4-(4-(3-(cyclopropylamino)quinoxalin-2-yl)piperazine-1-carbonyl)benzonitrile, 2,2,2-trifluoroacetic acid salt] the value was 21800 nM; for “3-(4-(3-chlorophenoxy)piperidin-1-yl)-N-cyclopropylpyrido[3,4-b]pyrazin-2-amine, 2,2,2-trifluoroacetic acid salt [Cpd 426]”, 27 nM.
For the compound “2-(cyclopropylamino)-3-(4-(2,5-dichloroisonicotinoyl)piperazin-1-yl)quinoxaline-6-carbonitrile [Cpd 265]”, the IC50 is 300 nM.
For the compound “3-(4-(2,5-difluorobenzyl)piperazin-1-yl)-2-((6-methoxypyridin-3-yl)amino)quinoxaline-6-carbonitrile, 2,2,2-trifluoroacetic acid salt [Cpd 333]”, the 50% inhibitory concentration (IC50) is 97 nM.
For “N-cyclopropyl-3-(4-(2,5-dichlorobenzyl)piperazin-1-yl)pyrido[3,4-b]pyrazin-2-amine, 2,2,2-trifluoroacetic acid salt [Cpd 134]” the value was 1640 nM.
In the case of `O=S(=O)(c1ccccc1)N1CCN(c2nc3ccccc3nc2NC2CC2)CC1` [Cpd 105, N-cyclopropyl-3-(4-(phenylsulfonyl)piperazin-1-yl)quinoxalin-2-amine] it was 5660 nM; in that of “(6-chloro-2,3-difluorophenyl)(1-(2-(cyclopropylamino)pyrido[3,4-b]pyrazin-3-yl)piperidin-4-yl)methanone, 2,2,2-trifluoroacetic acid salt [Cpd 569]”, 62 nM.
In the case of “3-(4-((4-(tert-butyl)phenyl)sulfonyl)piperazin-1-yl)-2-(cyclopropylamino)quinoxaline-6-carbonitrile, 2,2,2-trifluoroacetic acid salt [Cpd 280]”, the IC50 came to 450 nM.
In the case of “3-(4-(4-chloro-2-fluorophenoxy)piperidin-1-yl)-2-(cyclopropylamino)quinoxaline-6-carbonitrile, 2,2,2-trifluoroacetic acid salt [Cpd 465]” it was 11 nM.
With “3-(4-(4-chloro-3-methylbenzyl)piperazin-1-yl)-N-cyclopropylquinoxalin-2-amine, 2,2,2-trifluoroacetic acid salt [Cpd 194]”, the 50% inhibitory concentration (IC50) amounted to 3640 nM.
“3-(4-(2,5-dichlorobenzyl)piperazin-1-yl)-N-(pyridin-4-yl)quinoxalin-2-amine, 2,2,2-trifluoroacetic acid salt [Cpd 214]”: the 50% inhibitory concentration (IC50) worked out at 1470 nM.
For “3-(4-((4-bromophenyl)sulfonyl)piperazin-1-yl)-2-(cyclopropylamino)quinoxaline-6-carbonitrile [Cpd 251]” the value was 4340 nM.
